Results published in EP2974721A1, “A PHARMACEUTICAL COMPOSITION COMPRISING A GAS GENERATING INGREDIENT” (Nanomega Medical Corporation, priority 2014, dated 2016).

Tests used:
[1] = system: intestinal proteases; test: Inhibition of proteolytic degradation of insulin in isolated proximal small intestine (duodenum); format: biochemical; settings: added to insulin; duodenum freshly isolated from rats; result in words
Text: Inhibition of proteolytic degradation. Inhibiting the proteolytic degradation of insulin in the intestinal fluid and the mucosal layer is critical for increasing its oral bioavailability. The inhibiting effects of DTPA and SDS on intestinal proteases were separately studied in in vitro studies of the proximal portion of the small intestine (i.e., the duodenum) freshly isolated from rats. The various digestive enzymes secreted from the pancreas into the duodenum are well-recognized. […] Insulin is highly sensitive to trypsin and chymotrypsin, which are Ca^2+-dependent enzymes in the intestinal fluid and in the mucosal layer. One strategy for inhibiting intestinal protease activities is using complexing agents such as DTPA to remove essential metal ions (e.g., Ca^2+) from the enzyme structure at vicinity of the bioactive agent. […] Proposed molecular mechanisms of proteolytic inhibition by SDS include local conformational changes or altered charge distributions of the proteases induced by their specific binding of SDS.

[2] = system: Caco-2 cell monolayers; test: Epithelial permeability: transmission of FITC-insulin across cell monolayers (fluorescence microscopy); format: cell-based, human; settings: cells co-cultured with the component; stained for Cld 4, E-cadherin, DAPI; result in words
Text: Cell images of cells bound with nano/micro bubbles.
Enhanced epithelial permeability. Drug permeation may occur across the intestinal epithelium and through either transcellular or paracellular routes. To elucidate the precise mechanisms of interactions between the bubble carrier system and epithelial cells and its subsequent transport of the drug, the effects of DTPA and SDS on epithelial permeability were individually studied using Caco-2 cell monolayers. Monolayers of Caco-2 cells derived from human colorectal adenocarcinoma are widely used in in vitro models for predicting intestinal drug permeability.

Row | Compound | protective effect on insulin against the intestinal proteases [1] | transmission of FITC-insulin (pathway) [2]
1 | CCCCCCCCCCCCOS(=O)(=O)[O-].[Na+] [SDS, sodium dodecyl sulfate] | strong protective effect | promote transmission of FITC-insulin via both of paracellular pathway and transcellular pathway
2 | O=C(O)CN(CCN(CC(=O)O)CC(=O)O)CCN(CC(=O)O)CC(=O)O [DTPA, diethylene triamine pentaacetic acid] | strong protective effect | 
3 | O=C(O)CN(CCN1CC(=O)OC(=O)C1)CCN1CC(=O)OC(=O)C1 [DTPA dianhydride, diethylenetriaminepentaacetic dianhydride] |  | promote transmission of FITC-insulin via paracellular pathway
